Laboratory results reported in patent US10542757B2, “Compositions comprising a biological control agent and an insecticide” (priority 2012, dated 2020).

Experiments:
Format in all cases: in vivo
[1] = test system: green peach aphid (Myzus persicae); test: Myzus persicae spray test (MYZUPE); details: mortality, Chinese cabbage leaf-disks sprayed
Procedure: (§1) For all examples efficiencies of the compositions comprising at least one BCA and at least one specific insecticide has been determined by the “Colby-formula”: The expected efficacy of a given combination of two compounds is calculated as follows (see Colby, S. R., “Calculating Synergistic and antagonistic Responses of Herbicide Combinations”, Weeds 15, pp. 20-22, 1967):
(§2) • X is the efficacy expressed in % mortality of the untreated control for test compound A at a concentration of m ppm respectively m g/ha, • Y is the efficacy expressed in % mortality of the untreated control for test compound B at a concentration of n ppm respectively n g/ha, • E is the efficacy expressed in % mortality of the untreated control using the mixture of A and B at m and n ppm respectively m and n g/ha, then
(§3) If the observed insecticidal efficacy of the combination is higher than the one calculated as “E”, then the combination of the two compounds is more than additive, i.e., there is a synergistic effect.
(§4) To produce a suitable preparation of active compound, 1 part by weight of active compound is mixed with the stated amount of solvent and emulsifier, and the concentrate is diluted with emulsifier-containing water to the desired concentration. To produce a suitable preparation of a spore suspension the spores are diluted with emulsifier-containing water to the desired concentration.
Chinese cabbage (Brassica pekinensis) leaf-disks infected with all instars of the green peach aphid (Myzus persicae), are sprayed with a preparation of the active ingredient of the desired concentration.
After the specified period of time, mortality in % is determined. 100% means all aphids have been killed; 0% means none of the aphids have been killed. The mortality values determined thus are recalculated using the Colby-formula (see above).

[2] = test system: mustard beetle larvae (Phaedon cochleariae); test: Phaedon cochleariae spray test; details: mortality, Chinese cabbage leaf-disks sprayed
Procedure: as §1, §2, §3, §4
Chinese cabbage (Brassica pekinensis) leaf-disks are sprayed with a preparation of the active ingredient of the desired concentration. Once dry, the leaf disks are infested with mustard beetle larvae (Phaedon cochleariae).
After the specified period of time, mortality in % is determined. 100% means all beetle larvae have been killed and 0% means none of the beetle larvae have been killed. The mortality values determined thus are recalculated using the Colby-formula (see above).

[3] = test system: fall armyworm larvae (Spodoptera frugiperda); test: Spodoptera frugiperda spray test; details: mortality, maize leaf sections sprayed, 0.8 g ai/ha
Procedure: as §1, §2, §3
To produce a suitable preparation of the active compound, 1 part by weight of active compound is mixed with the stated amount of solvent and emulsifier, and the concentrate is diluted with emulsifier-containing water to the desired concentration. […]
(§5) After the specified period of time, mortality in % is determined. […] The mortality values determined thus are recalculated using the Colby-formula (see above).

[4] = test system: caterpillars of the beet army worm (Spodoptera exigua); test: Spodoptera exigua spray test; details: mortality, cotton leaves sprayed, 0.1 ppm
Procedure: as §1, §2, §3
(§6) To produce a suitable preparation of active compound, 1 part by weight of active compound is mixed with the stated amount of solvent and emulsifier, and the concentrate is diluted with emulsifier-containing water to the desired concentration. […]
as §5

[5] = test system: two spotted spidermite (Tetranychus urticae); test: Tetranychus urticae spray test, OP-resistant; details: mortality, French beans sprayed, 20 g ai/ha
Procedure: as §1, §2, §3, §6, §5

[6] = test system: larvae of the diamondback moth (Plutella xylostella); test: Plutella xylostella spray test; details: mortality, cabbage leaves sprayed, 0.05 ppm
Procedure: as §1, §2, §3, §6
After the specified period of time, the mortality in % is determined. […] The mortality values determined thus are recalculated using the Colby-formula (see above).

| SMILES | Efficacy in % after 6d ([1]; 100 g/ha) [%] | Efficacy in % after 2d ([2]; 100 g ai/ha, 2 d) [%] | Efficacy in % after 2d ([3]; 2 d) [%] | Efficacy in % after 6d ([3]; 6 d) [%] | Efficacy in % after 3d [4] [%] | Efficacy in % after 6d ([1]; 0.16 g/ha) [%] | Efficacy in % after 6d [5] [%] | Efficacy in % after 6d ([2]; 0.8 g ai/ha) [%] | Efficacy in % after 6d ([1]; 4 g/ha) [%] | Efficacy in % after 6d ([2]; 0.16 g ai/ha) [%] | Efficacy in % after 3d [6] [%] |
| --- | --- | --- | --- | --- | --- | --- | --- | --- | --- | --- | --- |
| Cc1cc(C(F)(C(F)(F)F)C(F)(F)F)ccc1NC(=O)c1cccc(I)c1C(=O)NC(C)(C)CS(C)(=O)=O [Flubendiamide (I233), Flubendiamide] | 0 | 0 | 0 | 0 | 30 | – | – | – | – | – | – |
| CNC(=O)c1cc(C#N)cc(C)c1NC(=O)c1cc(Br)nn1-c1ncccc1Cl [Cyantraniliprole (I232), Cyantraniliprole] | – | – | – | – | – | 0 | 0 | 33 | – | – | – |
| CNC(=O)c1cc(Cl)cc(C)c1NC(=O)c1cc(Br)nn1-c1ncccc1Cl [Chlorantraniliprole (I231), Chlorantraniliprole] | – | – | – | – | – | – | – | 0 | 0 | 0 | 30 |
